Measured values taken from patent publication US20160220557A1, “USE OF ACETYL-COA CARBOXYLASE INHIBITORS FOR TREATING ACNE VULGARIS” (PFIZER INC., priority 2013, published 2016).
pIC50: −log10 of the molar value. Several values for one entry are separate records, joined by “and”; a condition that tells them apart may be missing. Equal values may be shown once.

Legend:
[1] = test system: sebum production; test: Effect on sebum levels in healthy human volunteers (Sebumeter, Sebutape lipid classes); format: in vivo; settings: 200 mg BID oral, 14 days
Method: Otherwise healthy overweight or obese subjects were admitted to the Clinical Research Institute and dosed orally with Example 1 (200 mg BID) or placebo for 14 consecutive days. On two days pre-treatment and days 13 and 14 (post-treatment) of the study, sebum production was assessed by Sebumeter® measurements and sebum was collected for lipid component identification and quantification. In order to prepare the area of the skin where the Sebumeter® measurements and the sebum collection will be performed, the skin surface has to be cleansed from any lipids and debris. The targeted area on the forehead and the cheeks were gently blotted using an oil-absorbing tissue or gauze. After blotting, wipes or gauze pads presoaked in 70% ethanol solution were used to wipe the forehead and cheeks. Following cleansing, the skin was allowed to dry and sebum measurements were made using a clean, calibrated Sebumeter® SM 815 (Courage+Khazaka, Köln, Germany) in accordance with the manufactures directions at 5 minutes and 3 hours post-cleansing. Sebum levels determined by Sebumeter® are expressed as relative change from pre-treatment baseline for subjects treated with placebo and Example 1 and are presented in FIG. 4. The Sebutape® technique was used for sebum collection. At approximately 9 AM, following facial cleansing and the 5 minute post-cleanse sebumeter measurement, 4 Sebutape® strips were applied: 2 patches placed right and left on the forehead cranial of the middle line of the eye and 2 patches on the cheeks caudal of the middle line of the eye. The Sebutape® was peeled from its backing paper using defatted forceps and affixed to the surface with gentle pressure to assure adequate adhesion. Surgical gloves were to be worn by the person handling the tape. After 1 hour, the 4 patches were removed; the 2 left patches and the 2 right patches were placed in acid-washed, Teflon-capped screw-cap vials. Sebum lipid species were quantified from the Sebutape® samples by Metabolon using their TrueMass® technology platform. Analysis of these sebum samples enabled assessment of the effect of Example 1 vs. placebo on individual sebum lipid classes. […] Individual subject level and box plots depicting means with confidence intervals are shown for sebum triglycerides, wax esters, and free fatty acids (FIG. 5).

[2] = target: T1, CYP1A2 (Homo sapiens, UniProt P05177); test: biochemical
T1 sequence (P05177 1-516): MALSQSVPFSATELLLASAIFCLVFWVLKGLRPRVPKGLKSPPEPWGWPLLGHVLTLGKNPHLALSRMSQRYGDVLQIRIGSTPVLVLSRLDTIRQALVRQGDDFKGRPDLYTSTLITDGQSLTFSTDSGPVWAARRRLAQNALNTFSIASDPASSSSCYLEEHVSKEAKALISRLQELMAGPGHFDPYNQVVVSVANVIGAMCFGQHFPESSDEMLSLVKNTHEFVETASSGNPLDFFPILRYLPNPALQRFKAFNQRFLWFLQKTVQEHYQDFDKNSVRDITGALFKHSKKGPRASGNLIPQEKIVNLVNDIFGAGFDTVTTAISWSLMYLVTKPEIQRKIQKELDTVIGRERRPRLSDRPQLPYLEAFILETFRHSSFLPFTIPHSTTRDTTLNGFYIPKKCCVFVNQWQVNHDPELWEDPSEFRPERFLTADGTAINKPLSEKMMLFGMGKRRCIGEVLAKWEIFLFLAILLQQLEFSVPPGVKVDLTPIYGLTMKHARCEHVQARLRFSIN

## Cc1nc2ccc(C(=O)N3CCC4(CC3)CC(=O)c3c(cnn3C(C)C)C4)cc2[nH]1 [Example 1, 1-isopropyl-1′-(2-methyl-1H-benzo[d]imidazole-5-carbonyl)-4,6-dihydrospiro[indazole-5,4′-piperidin]-7(1H)-one]
[1]
  sebum free cholesterol change relative to PBO: no change
  sebum squalene levels, increase relative to PBO: 2.6 fold
[1]; PBO adjusted
  reduction of sebum production by Sebumeter from baseline: 49% and > 49%
[1]; Sebutape
  reduction of sebum free fatty acids relative to placebo: approximately 49%
  reduction of sebum wax esters relative to placebo: ~53%
[1]; Sebutape, PBO adjusted
  decrease of sebum triglycerides: 66%
[1]; vs. placebo
  levels of sebum free fatty acids (in words): reduced
  levels of sebum wax esters (in words): reduced
[2]
  pIC50: < 4.52
